# Measurements as given in patent publication US9447083B2, “N-acylhydrazone derivatives for selective T cell inhibitor and anti-lymphoid malignancy drug” (CHONG KUN DANG PHARMACEUTICAL CORP., priority 2012, dated 2016).
# Key:
# [1] = system: IM9; assay: Apoptosis of lymphoid malignancy cell lines: IM9; format: cell-based; settings: Homo sapiens, IM-9, 24 h, read-out: Administration Dose (mean ± SD, μmol/L) Lethal Dose 50 (Apoptosis)
# Description: (§1) Each of the acute T cell leukemia cell lines Jurkat, Molt4 and CCRF-CEM, the acute B cell leukemia cell line Raji and the […] cell lines KMS11, KMS12BM, KMS26, KMS28BM, and IM9 was re-suspended in 10% FBS-containing RPMI medium at a concentration of 1.5×10^5 cells/mL, and 200 μL of each of the cell suspensions was cultured in a flat bottom 96-well plate (Costar). The acute NK cell lymphoma cell line NK-92MI was re-suspended in α-MEM medium (supplemented with 20% FBS, 1×MEM vitamine solution, 50 μM 2-mercaptoethanol and 1× penicillin/streptomycin) at a concentration of 1.5×10^5 cells/mL, and 200 μL of the cell suspension was cultured in a flat bottom 96-well plate. The cells in each well was treated with 10 μL of each of 0.1, 0.25, 0.5, 0.75 and 1 μM of the compound diluted with RPMI medium, followed by that the cells were incubated in a 5% CO2 incubator at 37° C. for 24 hours. In a vehicle control group, cells were treated with 10 μL of medium containing 0.05% dimetylsulfoxide (DMSO, Sigma).
# The cells were collected, and then the apoptosis thereof was analyzed by a flow cytometer after staining with Annexin V-7-AAD. The incubated cells were collected, placed in a 5-mL FACS tube (BD Falcon) and washed with 1 mL of fluorescence activated cell sorting (FACS) buffer (1%. FBS and 0.1% sodium azaide in PBS). The cells were re-suspended in 0.1 mL of FACS buffer, followed by that the cells were treated and stained with phycoerythrin-Annexin V at room temperature for 10 minutes. After 10 minutes of staining, the cells were treated and stained with 7-AAD at room temperature for 5 minutes. The stained cells were suspended in 0.3 mL of FACS buffer, and then analyzed by a flow cytometer. […] Thus, compounds 065, 108, 229 and 457 of the present invention can be used as a novel anti-lymphoid malignancy drug.
# [2] = system: KMS11; assay: Apoptosis of lymphoid malignancy cell lines: KMS11; format: cell-based; settings: Homo sapiens, KMS-11; KMS11, Multiple myeloma, 24 hours; read-out: Administration Dose (mean ± SD, μmol/L) Lethal Dose 50 (Apoptosis)
# Description: as §1, with “In a vehicle control group, cells were treated with 10 μL of medium containing 0.05% dimetylsulfoxide (DMSO, Sigma).” left out
# The cells were collected, and then the apoptosis thereof was analyzed by a flow cytometer after staining with Annexin V-7-AAD. The incubated cells were collected, placed in a 5-mL FACS tube (BD Falcon) and washed with 1 mL of fluorescence activated cell sorting (FACS) buffer (1%. FBS and 0.1% sodium azaide in PBS). […] The stained cells were suspended in 0.3 mL of FACS buffer, and then analyzed by a flow cytometer. […]
# [3] = system: alloantigen-specific T cells; assay: Inhibitory effect against alloantigen-specific T cells in vitro (mixed lymphocyte reaction, CFSE / 7-AAD); format: cell-based, mouse; settings: for Apoptosis % (mean ± SD) Primary Response / Apoptosis % (mean ± SD) Secondary Response: 72 hours; for Apoptosis % (mean ± SD) Primary Response: vehicle 30.91 ± 3.80; for Apoptosis % (mean ± SD) Secondary Response: vehicle 39.10 ± 4.10
# Description: The lymph nodes and spleens were aseptically collected from normal C57BL/6 mice (8-12 week old, female, 20±2 g) and were ground with adding of RPMI medium. Then, the ground tissues were passed through a cell strainer (BD Falcon) to make single cell suspensions. The single cell suspension of the spleen was centrifuged at 1200 rpm for 5 minutes. The supernatant was removed, and then 1 mL of ammonium chloride/potassium bicarbonate (ACK) lysis buffer (0.15 M NH4Cl, 1 mM KHCO3, 0.1 mM Na2EDTA) was added to the cells, which were then vortexed for 1 minute and washed with RPMI medium. […] The incubated cell suspension was added with 10 mL of MACS buffer, centrifuged for 5 minutes, washed, and then re-suspended in 2 mL of MACS buffer. The suspended cells were placed in the autoMACS Pro Separator (Miltenyi Biotec), and T cells bound to CD90.2 microbeads were isolated. The isolated T cells were washed with phosphate buffered saline (PBS), and then re-suspended in PBS at a concentration of 1×10^8 cells/mL. Normal BALB/c mice (10-12 week old, female, 20-23 g) were irradiated with 950 rad of γ radiation using IBL 437C irradiator (CIS bio international), and then 100 μL of the above-prepared T cell suspension of C57BL/6 mice were injected into the tail vein of the BALB/c mice. At 3 days after the cell injection, the mice were sacrificed, and the spleens were obtained. An erythrocyte-free single cell suspension was made from the obtained spleens in the same manner as described above, and donor T cells were separated from the spleen cell suspension using the autoMACS Pro Separator, thereby preparing secondary responder cells. Meanwhile, T cells were isolated from normal C57BL/6 mice in the same manner as described above, thereby preparing primary responder cells. Each of the primary and secondary responder cells were re-suspended in 1 mL of 1% FBS-containing PBS, and treated with 3 μM of carboxyfluorescein diacetate succinimidyl ester (CFSE, Invitrogen), and then allowed to react at room temperature for 4 minutes. To stop the reaction, cold-stored 5% FBS-containing PBS was added to the cell suspension, followed by washing. The washed cells were re-suspended in 10% FBS-containing RPMI medium at a concentration of 2×10^6/mL. The spleens of normal BALB/c mice (8-12 week old, female, 20±2 g) were aseptically collected. The erythrocyte-free spleen cells were prepared in the same manner as described above, and then re-suspended in 1 mL of PBS. 0.5 mg/mL of Mitomycin-C(Sigma) was added to the suspension at a concentration of 0.5 μg/mL, and the cells were incubated at 37° C. for 20 minutes, and then washed three times with an excessive amount of PBS. The washed cells were re-suspended in 10% FBS-containing RPMI medium at a concentration of 4×10^6 cells/mL, thereby preparing stimulator cells. The primary and secondary responder cells were mixed with the stimulator cells at a ratio of 1:1 separately, and 200 μL of each cell mixtures was dispensed into each well of a round bottom 96-well plate (Costar). Then, the cells were treated with 10 μL of Compound 229 diluted in RPMI medium at various concentrations, and incubated in a 5% CO2 incubator at 37° C. for 72 hours. In a vehicle control group, the cells were 10 μL of 0.2% DMSO-containing RPMI medium. The incubated cells were placed into 5-mL FACS tubes and washed with 1 mL of fluorescence activated cell sorting (FACS) buffer (1% FBS and 0.1% sodium azaide in PBS). The washed cells were re-suspended in 0.1 mL of FACS buffer, and then treated with 1 μg of mouse immunoglobulin G (IgG, e-Biosciences) in order to prevent the non-specific binding of antibody, followed by incubation at 4° C. for 15 minutes. Then, the cells were stained with 0.5 μg of phycoerythrin-conjugated anti-mouse H-2K^b mAb (e-Biosciences) and stained at 4° C. for 30 minutes. After the staining, the cells were washed twice with 1 mL of FACS buffer, re-suspended in 0.1 mL of FACS buffer, stained with 7-AAD at room temperature for 5 minutes. […]
structure (smiles),measurement,setting,value
"Cc1cc(C)c(OCC(=O)N/N=C/c2ccc3cc[nH]c3c2)c(C2CCOC2)c1 (centres unmarked) [Compound 229, (E)-N′-((1H-indol-6-yl)methylene)-2-(2,4-dimethyl-6-(tetrahydrofuran-3-yl)phenoxy)acetohydrazide]",EC50,[1],0.9 ± 0.03 µmol/L
same,EC50,[2],0.35 ± 0.09 µmol/L
same,Apoptosis % (mean ± SD) Primary Response,"[3]; 0.125 μM, 7-AAD",28.42 ± 5.31%
same,Apoptosis % (mean ± SD) Secondary Response,"[3]; 0.125 μM, 7-AAD",41.40 ± 4.35%
same,"increase of apoptosis compared to the vehicle control group, secondary response","[3]; 0.25 μM or higher, 7-AAD",21-42%
same,Apoptosis % (mean ± SD) Primary Response,"[3]; 0.25 μM, 7-AAD",31.20 ± 4.26%
same,Apoptosis % (mean ± SD) Secondary Response,"[3]; 0.25 μM, 7-AAD",60.27 ± 6.10 %
same,"increase of apoptosis compared to the vehicle control group, primary response","[3]; 0.5 μM or higher, 7-AAD",14-19%
same,"ratio of T cells (CFSE low) that proliferated in response to the alloantigen, of the total T cells","[3]; 0.5 μM or higher, vehicle control 50%",≤ 3%
same,Apoptosis % (mean ± SD) Primary Response,"[3]; 0.5 μM, 7-AAD",45.01 ± 5.48 %
same,Apoptosis % (mean ± SD) Secondary Response,"[3]; 0.5 μM, 7-AAD",81.70 ± 5.62 %
same,Apoptosis % (mean ± SD) Primary Response,"[3]; 1 μM, 7-AAD",50.37 ± 6.19 %
same,Apoptosis % (mean ± SD) Secondary Response,"[3]; 1 μM, 7-AAD",80.37 ± 7.16 %
same,"proliferation of the alloantigen-specific T cells, secondary response","[3]; T cells activated primarily by the alloantigen in vivo, reacted with the same antigen in vitro",effectively inhibited
